# Data taken from ChEMBL document CHEMBL2146471, “Derivatives of heteroarylsulfonamides, their preparation, and their application in human therapy: patent highlight” (ACS Med Chem Lett, 2012).
# Target: Potassium voltage-gated channel subfamily A member 5 (Homo sapiens) (UniProt P22460)
# Test: Inhibition of Kv1.5 ion channel expressed in HEK293 cells at 10 uM by FLIPR assay
# Format: cell-based
# Chain of Potassium voltage-gated channel subfamily A member 5 (Homo sapiens) (P22460 whole entry): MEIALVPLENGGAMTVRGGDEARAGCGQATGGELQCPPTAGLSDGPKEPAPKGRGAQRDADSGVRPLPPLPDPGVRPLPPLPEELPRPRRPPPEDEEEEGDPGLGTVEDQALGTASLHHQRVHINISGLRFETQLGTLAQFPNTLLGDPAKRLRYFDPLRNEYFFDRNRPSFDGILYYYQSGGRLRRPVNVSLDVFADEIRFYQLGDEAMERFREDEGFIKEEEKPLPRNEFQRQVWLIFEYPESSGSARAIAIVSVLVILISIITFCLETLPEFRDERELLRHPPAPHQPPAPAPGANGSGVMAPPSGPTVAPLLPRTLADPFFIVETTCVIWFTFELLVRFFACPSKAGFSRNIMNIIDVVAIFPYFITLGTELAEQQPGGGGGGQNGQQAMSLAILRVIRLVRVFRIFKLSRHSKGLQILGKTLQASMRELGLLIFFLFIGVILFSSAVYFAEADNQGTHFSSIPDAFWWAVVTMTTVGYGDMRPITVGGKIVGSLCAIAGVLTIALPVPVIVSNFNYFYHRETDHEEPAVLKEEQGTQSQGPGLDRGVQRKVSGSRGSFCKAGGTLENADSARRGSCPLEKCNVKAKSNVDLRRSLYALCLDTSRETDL
row,Compound,inhibition [%]
1,O=C(c1cccc(NS(=O)(=O)c2ccccn2)c1)N1CCN(c2nc3ccc(Cl)cc3s2)CC1,75.1
2,O=C(c1ccc(NS(=O)(=O)c2ccccn2)cc1)N1CCN(c2nc3ccc(F)cc3s2)CC1,100

# Results, then the compound that gave them:
row,inhibition [%],Compound
1,100,O=S(=O)(Nc1ccccc1OC1CCN(c2nc3ccc(Br)cc3s2)CC1)c1ccccn1
2,100,O=C(c1ccccc1NS(=O)(=O)c1ccccn1)N1CCN(c2nc3ccc(Br)cc3s2)CC1
3,76,O=S(=O)(Nc1ccccc1OCC1CCN(c2nc3ccccc3s2)C1)c1ccccn1 (stereo not given)
